Experimental data: patent US20240317777A1, “NOVEL MACROCYCLIC AMINOPYRAZOLE COMPOUNDS AS CDK2 INHIBITORS” (Accutar Biotechnology Inc., priority 2023, published 2024)
pIC50: −log10 of the molar value. Read-outs that look alike come from different tables or passages of the source. Each block holds one molecule with its values, some of them ahead of it.

Key:
CDK1-CYCLIN B = CDK1-CYCLIN B (Homo sapiens, UniProt P06493); assay: CDK protein kinase inhibition by ADP-Glo assay, CDK1-CYCLIN B; type: biochemical; conditions: for pIC50: ADP-Glo, 1000 μM ATP, read-out: CDK1-CYCLINB, IC50; for CDK2 Fold selectivity, CDK1: CDK2 versus CDK1
CDK1-CYCLIN B, sequence (P06493 whole entry): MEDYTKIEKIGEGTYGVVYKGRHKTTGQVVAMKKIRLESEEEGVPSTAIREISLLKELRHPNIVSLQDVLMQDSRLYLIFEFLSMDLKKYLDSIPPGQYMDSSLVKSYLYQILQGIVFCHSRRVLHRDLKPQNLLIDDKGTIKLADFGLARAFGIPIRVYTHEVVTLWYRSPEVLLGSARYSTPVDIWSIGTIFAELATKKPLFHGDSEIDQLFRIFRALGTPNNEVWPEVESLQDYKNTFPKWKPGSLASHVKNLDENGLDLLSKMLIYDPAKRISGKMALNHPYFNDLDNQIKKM
CDK1-CYCLIN B, sequence (P14635 whole entry partner): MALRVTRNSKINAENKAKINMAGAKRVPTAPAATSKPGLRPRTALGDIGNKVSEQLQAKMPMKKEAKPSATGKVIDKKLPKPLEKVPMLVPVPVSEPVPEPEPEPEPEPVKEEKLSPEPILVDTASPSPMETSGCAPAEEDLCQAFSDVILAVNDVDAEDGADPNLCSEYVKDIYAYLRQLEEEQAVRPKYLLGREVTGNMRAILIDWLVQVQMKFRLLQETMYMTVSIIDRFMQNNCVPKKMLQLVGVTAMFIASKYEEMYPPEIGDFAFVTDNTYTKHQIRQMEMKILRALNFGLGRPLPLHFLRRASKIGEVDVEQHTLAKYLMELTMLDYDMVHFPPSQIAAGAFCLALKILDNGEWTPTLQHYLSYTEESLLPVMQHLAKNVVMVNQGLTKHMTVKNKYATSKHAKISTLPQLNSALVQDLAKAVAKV
Method in brief: (§1)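 Compounds were incubated at 22° C with the CDK/cyclin complex, peptide substrate, 1000 μM ATP and 5 mM MgCl2. The reaction was then quenched and ADP formation quantified by luminescence using ADP-Glo reagents.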

CDK2-CYCLIN E1 = CDK2-CYCLIN E1 (Homo sapiens, UniProt P24941); assay: CDK protein kinase inhibition by ADP-Glo assay, CDK2-CYCLIN E1; type: biochemical; conditions: ADP-Glo, 1000 μM ATP, read-out: CDK2-CYCLINE, IC50
Method in brief: as §1

CDK4-CYCLIN D1 = CDK4-CYCLIN D1 (Homo sapiens, UniProt P11802); assay: CDK protein kinase inhibition by ADP-Glo assay, CDK4-CYCLIN D1; type: biochemical; conditions: for pIC50: ADP-Glo, 1000 μM ATP, read-out: CDK4-CYCLIND1, IC50; for CDK2 Fold selectivity, CDK4: CDK2 versus CDK4
CDK4-CYCLIN D1, sequence (P11802 whole entry): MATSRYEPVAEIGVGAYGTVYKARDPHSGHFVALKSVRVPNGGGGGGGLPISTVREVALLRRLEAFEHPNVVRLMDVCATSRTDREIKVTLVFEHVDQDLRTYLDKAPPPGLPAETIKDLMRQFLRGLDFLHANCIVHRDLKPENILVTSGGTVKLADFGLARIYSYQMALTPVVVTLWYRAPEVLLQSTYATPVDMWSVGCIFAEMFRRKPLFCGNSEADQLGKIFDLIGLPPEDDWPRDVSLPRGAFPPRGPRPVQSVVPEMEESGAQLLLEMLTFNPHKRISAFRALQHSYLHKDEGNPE
CDK4-CYCLIN D1, sequence (P24385 whole entry partner): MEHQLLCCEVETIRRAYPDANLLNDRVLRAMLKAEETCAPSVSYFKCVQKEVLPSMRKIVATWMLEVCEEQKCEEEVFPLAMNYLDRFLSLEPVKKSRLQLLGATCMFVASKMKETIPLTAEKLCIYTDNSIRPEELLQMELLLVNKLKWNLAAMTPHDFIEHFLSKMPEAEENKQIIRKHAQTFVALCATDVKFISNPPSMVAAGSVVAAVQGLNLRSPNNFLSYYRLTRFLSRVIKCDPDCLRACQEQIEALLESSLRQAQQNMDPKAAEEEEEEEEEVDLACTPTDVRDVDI
Method in brief: as §1

CDK6-CYCLIN D3 = CDK6-CYCLIN D3 (Homo sapiens, UniProt Q00534); assay: CDK protein kinase inhibition by ADP-Glo assay, CDK6-CYCLIN D3; type: biochemical; conditions: for pIC50: ADP-Glo, 1000 μM ATP, read-out: CDK6-CYCLIND3, IC50; for CDK2 Fold selectivity, CDK6: CDK2 versus CDK6
CDK6-CYCLIN D3, sequence (Q00534 whole entry): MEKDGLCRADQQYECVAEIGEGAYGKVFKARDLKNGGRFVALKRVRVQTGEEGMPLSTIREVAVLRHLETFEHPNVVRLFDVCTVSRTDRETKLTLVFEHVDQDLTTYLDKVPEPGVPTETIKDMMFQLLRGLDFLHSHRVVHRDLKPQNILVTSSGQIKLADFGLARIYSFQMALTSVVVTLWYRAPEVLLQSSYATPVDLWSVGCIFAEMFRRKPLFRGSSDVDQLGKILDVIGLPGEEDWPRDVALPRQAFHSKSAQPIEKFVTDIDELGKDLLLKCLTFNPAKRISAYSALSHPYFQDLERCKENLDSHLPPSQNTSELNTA
CDK6-CYCLIN D3, sequence (P30281 whole entry partner): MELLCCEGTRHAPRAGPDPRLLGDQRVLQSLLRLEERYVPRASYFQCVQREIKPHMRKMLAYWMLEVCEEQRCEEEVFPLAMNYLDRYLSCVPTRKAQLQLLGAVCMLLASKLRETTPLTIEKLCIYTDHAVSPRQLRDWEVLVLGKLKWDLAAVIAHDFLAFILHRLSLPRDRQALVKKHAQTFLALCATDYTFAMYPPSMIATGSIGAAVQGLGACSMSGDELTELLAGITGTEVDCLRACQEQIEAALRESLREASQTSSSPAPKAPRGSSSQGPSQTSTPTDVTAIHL
Method in brief: as §1

CDK9-CYCLIN T1 = CDK9-CYCLIN T1 (Homo sapiens, UniProt P50750); assay: CDK protein kinase inhibition by ADP-Glo assay, CDK9-CYCLIN T1; type: biochemical; conditions: for pIC50: ADP-Glo, 1000 μM ATP, read-out: CDK9-CYCLINT1, IC50; for CDK2 Fold selectivity, CDK9: CDK2 versus CDK9
CDK9-CYCLIN T1, sequence (P50750 whole entry): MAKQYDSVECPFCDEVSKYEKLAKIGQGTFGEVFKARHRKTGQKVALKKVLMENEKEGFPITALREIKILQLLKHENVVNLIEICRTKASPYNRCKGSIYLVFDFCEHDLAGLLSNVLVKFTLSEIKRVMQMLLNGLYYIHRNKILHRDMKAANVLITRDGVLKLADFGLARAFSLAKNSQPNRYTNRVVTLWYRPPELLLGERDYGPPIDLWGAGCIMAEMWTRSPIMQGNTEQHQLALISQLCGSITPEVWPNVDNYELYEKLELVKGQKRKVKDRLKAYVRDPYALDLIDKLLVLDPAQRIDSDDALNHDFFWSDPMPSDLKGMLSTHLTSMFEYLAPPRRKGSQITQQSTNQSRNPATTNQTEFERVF
CDK9-CYCLIN T1, sequence (O60563 whole entry partner): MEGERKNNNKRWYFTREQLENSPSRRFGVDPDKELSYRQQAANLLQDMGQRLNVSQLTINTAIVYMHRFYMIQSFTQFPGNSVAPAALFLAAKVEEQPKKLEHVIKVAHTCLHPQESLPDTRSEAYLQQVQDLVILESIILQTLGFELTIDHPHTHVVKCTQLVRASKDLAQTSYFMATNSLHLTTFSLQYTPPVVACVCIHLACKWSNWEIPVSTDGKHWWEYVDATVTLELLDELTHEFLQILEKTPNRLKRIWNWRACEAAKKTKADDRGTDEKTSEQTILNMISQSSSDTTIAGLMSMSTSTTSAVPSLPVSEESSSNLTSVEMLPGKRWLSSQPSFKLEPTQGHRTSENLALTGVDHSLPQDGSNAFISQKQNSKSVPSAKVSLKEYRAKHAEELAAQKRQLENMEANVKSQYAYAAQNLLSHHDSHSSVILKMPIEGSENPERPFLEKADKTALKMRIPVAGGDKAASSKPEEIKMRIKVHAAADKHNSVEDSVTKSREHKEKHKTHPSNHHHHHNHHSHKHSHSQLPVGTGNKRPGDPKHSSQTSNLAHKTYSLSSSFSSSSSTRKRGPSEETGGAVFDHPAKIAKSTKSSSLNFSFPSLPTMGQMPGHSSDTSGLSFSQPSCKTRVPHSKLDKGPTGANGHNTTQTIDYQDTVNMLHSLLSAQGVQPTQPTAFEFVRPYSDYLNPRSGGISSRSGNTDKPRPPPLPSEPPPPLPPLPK
Method in brief: as §1

[1] = system: Phospho-Rb (Ser807/811) in OVCAR3 cells; assay: Phospho-Rb expression inhibition in OVCAR3 cells quantified by In Cell Western; type: cell-based; conditions: Homo sapiens, OVCAR-3, 24 hours, read-out: OVCAR-3 pRb IC50
Method in brief: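 In-cell western: after 24 h compound exposure at 37° C, fixed OVCAR3 cells co-stained for pRb Ser807/811 (800 nm channel) and total Rb (680 nm channel), imaged by LI-COR Odyssey.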

[2] = system: CCNE1-amplified OVCAR3 cells; assay: Cell growth inhibition of CCNE1-amplified OVCAR3 cells (CellTiter-Glo); type: cell-based; conditions: Homo sapiens, OVCAR-3, 144 h, 6 days
Method in brief: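 Growth read-out was CellTiter-Glo luminescence, taken after 10 min at room temperature at the end of a 6-day compound exposure at 37 °C. Compounds were diluted from DMSO stocks across various concentrations.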

CCNE1-normal SKOV3 cells = assay: Cell growth inhibition of CCNE1-normal SKOV3 cells (CellTiter-Glo); type: cell-based; conditions: Homo sapiens, SK-OV-3, 144 h, 6 days
Method in brief: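 Growth was measured by CellTiter-Glo luminescence after 6 days' compound exposure at 37 °C. Cells were plated one day before dosing at 1000 per well in medium with 10% FBS, and compounds were diluted from DMSO stocks.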

Structure (SMILES): C[C@H]1CCCOc2cncc(c2)Nc2cc(n[nH]2)[C@H]2CC[C@H](C2)OC(=O)N1 [Compound 119, (1^1S,1^3R,9S,Z)-9-methyl-2^1H-5,12-dioxa-3,10-diaza-4(3,5)-pyridina-2(3,5)-pyrazola-1(1,3)-cyclopentanacyclododecaphan-11-one]
pIC50 (CDK1-CYCLIN B; Table 13): 7.30 to 8.00
CDK2 Fold selectivity, CDK1 (CDK1-CYCLIN B; Table 14): D (D, >20 and ≤50)
pIC50 (CDK2-CYCLIN E1; Table 13): ≥ 8.00
pIC50 (CDK4-CYCLIN D1; Table 13): 6.30 to 7.00
CDK2 Fold selectivity, CDK4 (CDK4-CYCLIN D1; Table 14): C (C, >50 and ≤100)
pIC50 (CDK6-CYCLIN D3; Table 13): 7.30 to 8.00
CDK2 Fold selectivity, CDK6 (CDK6-CYCLIN D3; Table 14): E (E, <20)
pIC50 (CDK9-CYCLIN T1; Table 13): 6.30 to 7.00
CDK2 Fold selectivity, CDK9 (CDK9-CYCLIN T1; Table 14): C (C, >50 and ≤100)
pIC50 [1]: 8.00 to 8.70
pIC50 [2]: 7.30 to 8.00
pIC50 (CCNE1-normal SKOV3 cells): < 5.90

Structure (SMILES): C[C@H]1Oc2cncc(c2)Nc2cc(n[nH]2)[C@H]2CC[C@H](C2)OC(=O)N[C@H]2C[C@H]1C2 [Compound 148, (1^1S,1^3R,7^1R,7^3R,6R,Z)-6-methyl-2^1H-5,10-dioxa-3,8-diaza-4(3,5)-pyridina-2(3,5)-pyrazola-1(1,3)-cyclopentana-7(1,3)-cyclobutanacyclodecaphan-9-one]
pIC50 (CDK1-CYCLIN B; Table 21): 7.30 to 8.00
CDK2 Fold selectivity, CDK1 (CDK1-CYCLIN B; Table 22): E (E, <20)
pIC50 (CDK2-CYCLIN E1; Table 21): ≥ 8.00
pIC50 (CDK4-CYCLIN D1; Table 21): 7.00 to 7.30
CDK2 Fold selectivity, CDK4 (CDK4-CYCLIN D1; Table 22): E (E, <20)
pIC50 (CDK6-CYCLIN D3; Table 21): 7.00 to 7.30
CDK2 Fold selectivity, CDK6 (CDK6-CYCLIN D3; Table 22): D (D, >20 and ≤50)
pIC50 (CDK9-CYCLIN T1; Table 21): 6.30 to 7.00
CDK2 Fold selectivity, CDK9 (CDK9-CYCLIN T1; Table 22): D (D, >20 and ≤50)
pIC50 [1]: ≥ 8.70
pIC50 [2]: 8.00 to 8.70
pIC50 (CCNE1-normal SKOV3 cells): 5.90 to 6.60

Structure (SMILES): C[C@@H]1Oc2cncc(c2)Nc2cc(n[nH]2)[C@H]2CC[C@H](C2)OC(=O)N[C@H]2C[C@H]1C2 [Compound 150, (1^1S,1^3R,7^1R,7^3S,6S,Z)-6-methyl-2^1H-5,10-dioxa-3,8-diaza-4(3,5)-pyridina-2(3,5)-pyrazola-1(1,3)-cyclopentana-7(1,3)-cyclobutanacyclodecaphan-9-one]
pIC50 (CDK1-CYCLIN B; Table 21): 7.30 to 8.00
CDK2 Fold selectivity, CDK1 (CDK1-CYCLIN B; Table 22): E (E, <20)
pIC50 (CDK2-CYCLIN E1; Table 21): ≥ 8.00
pIC50 (CDK4-CYCLIN D1; Table 21): 6.30 to 7.00
CDK2 Fold selectivity, CDK4 (CDK4-CYCLIN D1; Table 22): D (D, >20 and ≤50)
pIC50 (CDK6-CYCLIN D3; Table 21): 7.00 to 7.30
CDK2 Fold selectivity, CDK6 (CDK6-CYCLIN D3; Table 22): D (D, >20 and ≤50)
pIC50 (CDK9-CYCLIN T1; Table 21): 6.30 to 7.00
CDK2 Fold selectivity, CDK9 (CDK9-CYCLIN T1; Table 22): B (B, >100 and ≤500)
pIC50 [1]: 8.00 to 8.70
pIC50 [2]: 8.00 to 8.70
pIC50 (CCNE1-normal SKOV3 cells): 5.90 to 6.60

Structure (SMILES): O=C1N[C@H]2C[C@@H](CC(F)(F)c3cc(ccn3)Nc3cc(n[nH]3)[C@H]3CC[C@H](C3)O1)C2 (single isomer, unassigned) [Compound 170, (1^1S,1^3R,7^1S,7^3R,Z)-5,5-difluoro-2^1H-10-oxa-3,8-diaza-4(4,2)-pyridina-2(3,5)-pyrazola-1(1,3)-cyclopentana-7(1,3)-cyclobutanacyclodecaphan-9-one]
pIC50 (CDK1-CYCLIN B; Table 31): ≥ 8.00
CDK2 Fold selectivity, CDK1 (CDK1-CYCLIN B; Table 32): E (E, <20)
pIC50 (CDK2-CYCLIN E1; Table 31): ≥ 8.00
pIC50 (CDK4-CYCLIN D1; Table 31): 7.30 to 8.00
CDK2 Fold selectivity, CDK4 (CDK4-CYCLIN D1; Table 32): E (E, <20)
pIC50 (CDK6-CYCLIN D3; Table 31): 7.30 to 8.00
CDK2 Fold selectivity, CDK6 (CDK6-CYCLIN D3; Table 32): E (E, <20)
pIC50 (CDK9-CYCLIN T1; Table 31): 7.30 to 8.00
CDK2 Fold selectivity, CDK9 (CDK9-CYCLIN T1; Table 32): E (E, <20)
pIC50 [1]: 8.00 to 8.70
pIC50 [2]: 8.00 to 8.70
pIC50 (CCNE1-normal SKOV3 cells): 6.60 to 7.30

Structure (SMILES): C[C@@H]1CCC#Cc2cc(ccn2)Nc2cc(n[nH]2)[C@H]2CC[C@H](C2)OC(=O)N1 [Compound 137, (1^1S,1^3R,2^4Z,9R)-9-methyl-2^1H-12-oxa-3,10-diaza-4(4,2)-pyridina-2(3,5)-pyrazola-1(1,3)-cyclopentanacyclododecaphan-5-yn-11-one]
pIC50 (CDK1-CYCLIN B; Table 19): 6.30 to 7.00
CDK2 Fold selectivity, CDK1 (CDK1-CYCLIN B; Table 20): E (E, <20)
pIC50 (CDK2-CYCLIN E1; Table 19): 7.30 to 8.00
pIC50 (CDK4-CYCLIN D1; Table 19): < 6.30
CDK2 Fold selectivity, CDK4 (CDK4-CYCLIN D1; Table 20): E (E, <20)
pIC50 (CDK6-CYCLIN D3; Table 19): < 6.30
CDK2 Fold selectivity, CDK6 (CDK6-CYCLIN D3; Table 20): D (D, >20 and ≤50)
pIC50 (CDK9-CYCLIN T1; Table 19): < 6.30
CDK2 Fold selectivity, CDK9 (CDK9-CYCLIN T1; Table 20): D (D, >20 and ≤50)
pIC50 [1]: 7.30 to 8.00
pIC50 [2]: 6.60 to 7.30
pIC50 (CCNE1-normal SKOV3 cells): < 5.90

Second part, led by results:

pIC50 (CDK1-CYCLIN B; Table 23): 7.30 to 8.00
pIC50 (CDK2-CYCLIN E1; Table 23): ≥ 8.00
pIC50 (CDK4-CYCLIN D1; Table 23): 7.30 to 8.00
pIC50 (CDK6-CYCLIN D3; Table 23): 7.00 to 7.30
pIC50 (CDK9-CYCLIN T1; Table 23): 7.00 to 7.30
pIC50 [1]: 8.00 to 8.70
pIC50 [2]: 8.00 to 8.70
Structure (SMILES): C[C@@H]1OCC[C@H](C)NC(=O)O[C@@H]2CC[C@@H](C2)c2cc([nH]n2)Nc2ccnc1c2 [compound 159]
pIC50 (CCNE1-normal SKOV3 cells): 6.60 to 7.30

pIC50 (CDK1-CYCLIN B; Table 23): 7.00 to 7.30
pIC50 (CDK2-CYCLIN E1; Table 23): ≥ 8.00
pIC50 (CDK4-CYCLIN D1; Table 23): 6.30 to 7.00
pIC50 (CDK6-CYCLIN D3; Table 23): 6.30 to 7.00
pIC50 (CDK9-CYCLIN T1; Table 23): 6.30 to 7.00
pIC50 [1]: 7.30 to 8.00
pIC50 [2]: 7.30 to 8.00
Structure (SMILES): C[C@@H]1CC[C@H](C)Oc2cc(ccn2)Nc2cc(n[nH]2)[C@H]2CC[C@H](C2)OC(=O)N1 [compound 163]
pIC50 (CCNE1-normal SKOV3 cells): 5.90 to 6.60

pIC50 (CDK1-CYCLIN B; Table 9): 7.30 to 8.00
pIC50 (CDK2-CYCLIN E1; Table 9): ≥ 8.00
pIC50 (CDK4-CYCLIN D1; Table 9): 7.00 to 7.30
pIC50 (CDK6-CYCLIN D3; Table 9): 6.30 to 7.00
pIC50 (CDK9-CYCLIN T1; Table 9): 6.30 to 7.00
pIC50 [1]: 8.00 to 8.70
pIC50 [2]: 7.30 to 8.00
Structure (SMILES): C[C@@H]1CCC2(CC2)NC(=O)O[C@@H]2CC[C@@H](C2)c2cc([nH]n2)Nc2ccnc(c2)O1 [compound 109]
pIC50 (CCNE1-normal SKOV3 cells): 5.90 to 6.60

pIC50 (CDK1-CYCLIN B; Table 17): ≥ 8.00
CDK2 Fold selectivity, CDK1 (CDK1-CYCLIN B; Table 18): E (E, <20)
pIC50 (CDK2-CYCLIN E1; Table 17): ≥ 8.00
pIC50 (CDK4-CYCLIN D1; Table 17): 7.30 to 8.00
CDK2 Fold selectivity, CDK4 (CDK4-CYCLIN D1; Table 18): E (E, <20)
pIC50 (CDK6-CYCLIN D3; Table 17): 7.30 to 8.00
CDK2 Fold selectivity, CDK6 (CDK6-CYCLIN D3; Table 18): E (E, <20)
pIC50 (CDK9-CYCLIN T1; Table 17): ≥ 8.00
CDK2 Fold selectivity, CDK9 (CDK9-CYCLIN T1; Table 18): E (E, <20)
pIC50 [1]: ≥ 8.70
pIC50 [2]: ≥ 8.70
Structure (SMILES): O=C1NC23CC(C/C=C/c4cc(ccn4)Nc4cc(n[nH]4)[C@H]4CC[C@H](C4)O1)(C2)C3 [Compound 107, (11S,13R,24Z,5E)-21H-11-oxa-3,9-diaza-4(4,2)-pyridina-2(3,5)-pyrazola-8(1,3)-bicyclo[1.1.1]pentana-1(1,3)-cyclopentanacycloundecaphan-5-en-10-one]
pIC50 (CCNE1-normal SKOV3 cells): 7.30 to 8.00
